Data published in article PMC6755732, “Structural, Biochemical, and In Vivo Characterization of MtrR-Mediated Resistance to Innate Antimicrobials by the Human Pathogen Neisseria gonorrhoeae” (Journal of Bacteriology, 2019).
Several values for one entry are separate records, joined by “and”; a condition that tells them apart may be missing. Equal values may be shown once. Marks after values point to notes of the source that are not given here.

Key:
MtrR = biological target: T1, MtrR (Neisseria gonorrhoeae, UniProt P39897); experiment: Isothermal titration calorimetry, wild-type MtrR with bile salts; format: binding; settings: ITC; for Stoichiometry N, WT MtrR: bile salt per MtrR
T1 construct: A codon optimized gene of MtrR was synthesized by GenScript and cloned into the; hexahistidine tag with TEV protease site (N, cleaved yes); made in house
T1 sequence (P39897 whole entry): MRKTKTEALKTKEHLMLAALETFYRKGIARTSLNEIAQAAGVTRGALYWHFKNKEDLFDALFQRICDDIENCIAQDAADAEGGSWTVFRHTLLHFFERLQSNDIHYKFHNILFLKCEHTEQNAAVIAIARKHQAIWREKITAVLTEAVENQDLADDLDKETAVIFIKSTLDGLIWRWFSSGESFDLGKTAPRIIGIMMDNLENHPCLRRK
Experimental: (§1) Purified MtrR was dialyzed extensively against buffer containing 20 mM Tris [pH 8.0], 200 mM NaCl, 10% glycerol, and 1 mM TCEP overnight at 4°C. The stock solutions and the necessary dilutions of the bile salts were prepared using this dialysis buffer. Titrations with 20 μM MtrR in the cell and 250 μM ligand in the syringe were performed using a VP-ITC microcalorimeter (Microcal Inc.). All measurements were conducted at 25°C with a stirring speed of 200 rpm. After subtraction of germane blank data, the titration data were analyzed using the program ORIGIN 5.0.
(§2) Protein purification for Isothermal Titration Calorimetry experiments and mutant […]
(§3) A codon optimized gene of MtrR was synthesized by GenScript and cloned into the pMCSG7 vector in- frame with the N-terminal Hexa- histidine tag and tobacco etch virus (TEV) protease cleavage site. This construct was used as the template for site- directed mutagenesis and to generate wild- type data in supplemental f igures 5-6 and Isothermal Titration Calorimetry data. This protein was overexpressed and purified as described in the “Materials and Methods” of the document, except the he xa -histidine tag MtrR was cleaved by TEV protease following NiNTA affinity chromatography. Cleaved MtrR was purified from tagged MtrR and cleaved hexa- histidine tag by Ni- NTA aff inity chromatography and then further purified by size exclusion chromatography (S200).

MtrR(R176E) = biological target: T2, MtrR(R176E) (Neisseria gonorrhoeae, UniProt P39897, R176E); experiment: Isothermal titration calorimetry, MtrR(R176E) with bile salts; format: binding; settings: ITC
T2 construct: hexahistidine tag with TEV protease site (N, cleaved yes); made in house; host or cells: Rosetta Gami B(DE3) pLysS cells (Novagen)
T2 sequence (P39897 whole entry R176E): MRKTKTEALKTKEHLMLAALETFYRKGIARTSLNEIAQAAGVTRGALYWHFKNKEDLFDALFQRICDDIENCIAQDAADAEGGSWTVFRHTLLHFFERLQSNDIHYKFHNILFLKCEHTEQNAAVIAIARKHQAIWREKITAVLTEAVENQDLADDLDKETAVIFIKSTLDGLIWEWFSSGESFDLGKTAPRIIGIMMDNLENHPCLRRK
Experimental: as §1, §2, §3
Site-directed mutagenesis
To introduce the mutations W 136L, R176A, and R176E, we performed DpnI mediated site-directed mutagenesis. Complementary oligonucleotides containing the desired mutations were obtained from IDT. PCR reactions containing two complementary primers, template DNA, Pfu DNA polymerase buffer, dNTP, and Pfu DNA polymerase were incubated at 95 °C for 30 seconds followed by 18 cycles of 95 °C for […], 55 °C for one minute, and 68 °C for 11 minutes. After cooling the reactions to 4 °C, 10 units of Dpn1 (NEB) was added to each 50 µl reaction and incubated at 37 °C for 3 hours.
The resulting plasmids were used to transform DH5α (Thermo Fisher) cells for plasmid prep. After checking the sequences to ensure the mutations had been incorporated, these plasmids were overexpressed in Rosetta Gami B(DE3) pLysS cells (Novagen)

MtrR(W136L) = biological target: T3, MtrR(W136L) (Neisseria gonorrhoeae, UniProt P39897, W136L); experiment: Isothermal titration calorimetry, MtrR(W136L) with bile salts; format: binding; settings: ITC
T3 construct: hexahistidine tag with TEV protease site (N, cleaved yes); made in house; host or cells: Rosetta Gami B(DE3) pLysS cells (Novagen)
T3 sequence (P39897 whole entry W136L): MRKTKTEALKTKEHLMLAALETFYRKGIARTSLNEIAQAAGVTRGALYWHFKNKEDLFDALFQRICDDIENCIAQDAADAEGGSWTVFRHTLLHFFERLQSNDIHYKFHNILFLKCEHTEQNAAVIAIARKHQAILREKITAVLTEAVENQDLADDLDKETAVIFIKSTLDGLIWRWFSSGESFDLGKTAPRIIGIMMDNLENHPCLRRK
Experimental: as §1, §2
A codon optimized gene of MtrR was synthesized by GenScript and cloned into the pMCSG7 vector in- frame with the N-terminal Hexa- histidine tag and tobacco etch virus (TEV) protease cleavage site. This construct was used as the template for site- directed mutagenesis and to generate wild- type data in supplemental f igures 5-6 and Isothermal Titration Calorimetry data. This protein was overexpressed and purified as described in the “Materials and Methods” of the document, except the he xa -histidine tag MtrR was cleaved by TEV protease following NiNTA affinity chromatography. […]

[1] = biological target: T4, MtrR(R176A)-mtrCDE operator DNA (Neisseria gonorrhoeae, UniProt P39897, R176A); experiment: Electrophoretic mobility shift assay, induction of MtrR(R176A); format: biochemical; settings: EMSA
T4 construct: hexahistidine tag with TEV protease site (N, cleaved yes); made in house; host or cells: Rosetta Gami B(DE3) pLysS cells (Novagen)
T4 sequence (P39897 whole entry R176A): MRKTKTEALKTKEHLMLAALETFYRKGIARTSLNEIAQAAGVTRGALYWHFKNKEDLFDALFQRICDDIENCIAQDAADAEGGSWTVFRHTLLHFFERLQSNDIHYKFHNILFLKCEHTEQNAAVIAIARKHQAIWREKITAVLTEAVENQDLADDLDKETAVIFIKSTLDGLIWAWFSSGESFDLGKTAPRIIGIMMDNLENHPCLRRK
Description: We hypothesized that the bile salts chenodeoxycholate and taurodeoxycholate occupied the binding pocket in which the CAPS electron density was observed. In our crystal structure, residues R176′ and W136 appear to be potentially important for H bonding and π stacking, respectively, with the ligand (see Fig. S4). Therefore, we generated and purified the single-site mutant MtrR proteins, MtrR(R176A), MtrR(R176E), and MtrR(W136L), to determine the importance of these residues for ligand binding (see the supplemental material) ([40]). First, we determined the capabilities of these single mutants to bind DNA with our FP-based assay. All the mutants were capable of binding the mtrCDE target sequence, with dissociation constants in the nanomolar range and all within 5-fold of the wild-type protein (see Fig. S7A). […] At higher concentrations (5 to 10 mM), taurodeoxycholate induced all three mutants. […]
Complementary oligodeoxynucleotides containing the MtrR binding site from the mtrC promoter (top strand, 5′-[…]-3′; an unusual pseudo-direct repeat is underlined) were annealed by heating an equimolar mixture of the top and bottom strands at 95°C for 5 min, followed by slow cooling to room temperature. […] The gels were stained with ethidium bromide and visualized and analyzed with an Alpha Innotech gel documentation instrument. The intensities of free DNA were measured with ImageJII ([61], [62]).

[2] = tested on: mtrCp-lacZ in FA19 (wild type); experiment: β-Galactosidase assay of mtrCp-lacZ fusion, strain FA19; format: cell-based, Neisseria gonorrhoeae
Description: (§4) To determine if sublethal concentrations of bile salts could relieve MtrR-mediated repression of mtrC (and, by inference, the mtrCDE operon), a translational fusion of the promoter region of mtrC to lacZ was used. This fusion system was made in the wild-type (FA19) background ([41]) and cloned into mtrR deletion mutant strain JF1. Using the mtrCp-lacZ fusion, the β-galactosidase activity of the strains grown in the presence or absence of the bile salt chenodeoxycholate, taurodeoxycholate, or glycocholate was measured. The β-galactosidase levels were determined from strains grown overnight on GC agar supplemented with the bile salt at concentrations 4-fold below their specific MICs to ensure that the concentration of each bile salt was in the same biological range (the bile salt concentrations are listed in Table 2).
N. gonorrhoeae strains FA19 (wild type) and JF1 (FA19 ΔmtrR) containing a translational mtrCp-lacZ fusion with the proAB locus were used to assess the ability of bile salts to induce mtrC expression; the construction of these strains has been described previously ([41]). The MIC of bile salts for each strain used in the β-galactosidase assay was determined using a 2-fold agar dilution method ([32]). Gonococci were grown overnight on GC agar (Difco Laboratories) supplemented with a bile salt (glycocholate, chenodeoxycholate, or taurodeoxycholate) at concentrations that were 4-fold below the MIC. After overnight growth at 37°C under 3.8% (vol/vol) CO2, the bacteria were scraped from the agar plate, resuspended in 1 ml phosphate-buffered saline (pH 7.4), and lysed by freeze-thawing three times, after which the cell debris was pelleted by centrifugation. The lysate was then used to determine β-galactosidase levels as described previously ([63]). All experiments were performed in triplicate with at least three biological replicates conducted on different days.

[3] = tested on: mtrCp-lacZ in JF1 (FA19 ΔmtrR); format: cell-based, Neisseria gonorrhoeae
Description: as §4
N. gonorrhoeae strains FA19 (wild type) and JF1 (FA19 ΔmtrR) containing a translational mtrCp-lacZ fusion with the proAB locus were used to assess the ability of bile salts to induce mtrC expression; the construction of these strains has been described previously ([41]). The MIC of bile salts for each strain used in the β-galactosidase assay was determined using a 2-fold agar dilution method ([32]). […]

C[C@H](CCC(=O)O)[C@H]1CC[C@H]2[C@@H]3[C@H](O)C[C@@H]4C[C@H](O)CC[C@]4(C)[C@H]3CC[C@]12C [Chenodeoxycholate, chenodeoxycholate]
ΔH, WT MtrR (MtrR): -4.127 ± 0.739 kcal/mol | ΔS, WT MtrR (MtrR): 10.85 ± 3.13 cal/mol/deg | Kd (MtrR; 25°C, 20 μM MtrR in cell, 250 μM ligand in syringe, read-out: Kd of bile salt binding to WT MtrR): 4.4 µM and ~5 µM | Stoichiometry N, WT MtrR (MtrR): 0.444 ± 0.097 | Stoichiometry N, WT MtrR (MtrR; listed as CDCA): ~ 0.5 | Stoichiometry N, WT MtrR (MtrR; listed as chenodeoxycholate): one molecule of bile salt per MtrR dimer | Stoichiometry N, MtrR(R176E) (MtrR(R176E)): 0.521 ± 0.038 | ΔH, MtrR(R176E) (MtrR(R176E)): -12.979 ± 8.228 kcal/mol | ΔS, MtrR(R176E) (MtrR(R176E)): -23.00 ± 31.48 cal/mol/deg | Kd (MtrR(R176E); read-out: Kd of bile salt binding to MtrR(R176E)): 97 ± 64 µM | Kd of bile salt binding to MtrR(W136L) (MtrR(W136L)): No binding | Concentration that induces (dissociates from mtrCDE operator DNA) MtrR(R176A) [1]: did not induce either MtrR(R176A) or MtrR(R176E) to the same degree as the wild-type protein | MtrR-dependent derepression of the mtrC promoter ([2]; FA19 compared with ΔmtrR strain JF1, sublethal bile salt): clearly evident | Fold increase of mtrCp-lacZ activity ([2]; strain FA19, grown on GC agar with bile salt 4-fold below MIC versus normal agar, mM concentration in parentheses in the cell): 5.09 (0.2) | Fold increase of mtrCp-lacZ activity [3]: 1.37 (0.2)^b
